Test results from ChEMBL document CHEMBL1123787, “Radioiodinated p-iodoclonidine: a high-affinity probe for the alpha 2-adrenergic receptor” (J Med Chem, 1987).

Molecular target: T1, Adrenergic receptor alpha-2 (Homo sapiens, UniProt P08913+P18825+P18089)
T1 sequence (P08913 whole entry): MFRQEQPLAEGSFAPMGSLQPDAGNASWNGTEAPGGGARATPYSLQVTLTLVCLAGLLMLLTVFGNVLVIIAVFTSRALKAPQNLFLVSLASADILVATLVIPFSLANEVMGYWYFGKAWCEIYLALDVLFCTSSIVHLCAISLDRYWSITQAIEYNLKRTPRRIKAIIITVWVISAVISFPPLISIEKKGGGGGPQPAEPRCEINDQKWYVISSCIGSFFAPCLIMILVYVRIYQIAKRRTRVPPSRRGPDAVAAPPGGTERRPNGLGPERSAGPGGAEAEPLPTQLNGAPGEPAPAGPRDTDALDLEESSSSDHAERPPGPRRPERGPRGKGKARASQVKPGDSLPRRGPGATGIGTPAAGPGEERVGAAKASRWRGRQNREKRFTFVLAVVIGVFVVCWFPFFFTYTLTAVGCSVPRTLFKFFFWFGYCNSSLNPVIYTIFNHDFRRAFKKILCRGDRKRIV
T1 sequence (P18825 whole entry): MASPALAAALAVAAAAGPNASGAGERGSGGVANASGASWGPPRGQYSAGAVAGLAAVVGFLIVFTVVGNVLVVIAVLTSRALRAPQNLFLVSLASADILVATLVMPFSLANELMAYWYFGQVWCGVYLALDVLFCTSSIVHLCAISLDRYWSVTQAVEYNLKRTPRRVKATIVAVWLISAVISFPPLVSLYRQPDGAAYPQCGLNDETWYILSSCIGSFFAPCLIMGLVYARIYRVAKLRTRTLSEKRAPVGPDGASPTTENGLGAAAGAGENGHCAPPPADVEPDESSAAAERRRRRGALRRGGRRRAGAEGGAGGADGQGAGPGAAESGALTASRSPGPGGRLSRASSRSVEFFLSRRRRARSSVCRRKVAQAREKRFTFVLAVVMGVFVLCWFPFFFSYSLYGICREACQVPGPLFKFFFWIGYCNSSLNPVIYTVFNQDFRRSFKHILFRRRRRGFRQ
T1 sequence (P18089 whole entry): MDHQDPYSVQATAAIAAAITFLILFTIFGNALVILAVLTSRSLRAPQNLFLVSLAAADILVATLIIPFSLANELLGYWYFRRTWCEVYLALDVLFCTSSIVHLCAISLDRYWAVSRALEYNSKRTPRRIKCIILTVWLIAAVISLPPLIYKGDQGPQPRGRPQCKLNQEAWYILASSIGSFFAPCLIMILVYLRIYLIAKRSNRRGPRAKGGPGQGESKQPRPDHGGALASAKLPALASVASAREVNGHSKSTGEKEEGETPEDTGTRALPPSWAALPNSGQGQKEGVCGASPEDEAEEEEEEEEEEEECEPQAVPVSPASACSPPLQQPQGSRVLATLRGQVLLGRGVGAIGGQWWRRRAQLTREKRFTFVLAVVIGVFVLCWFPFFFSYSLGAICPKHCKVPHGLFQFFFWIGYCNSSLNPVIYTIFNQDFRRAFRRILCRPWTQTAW

SMILES | IC50
O=[N+]([O-])c1cc(Cl)c(N=C2NCCN2)c(Cl)c1 | 10 µM
Clc1cc(N=NN2CCCC2)cc(Cl)c1NC1=NCCN1 | 2 µM
